Test results from ChEMBL document CHEMBL3751742, “A one pot, two-step synthesis of 5-arylpyrrolo[2,3-d]pyrimidines and screening of their preliminary antibacterial properties” (2016).
Calls of active or inactive are those of the source. The calls are words filed in the database; no cut-off is given here.

Key:
Assay type in all cases: functional
Details in all cases: for zone of inhibition at 5000 µg/mL: read-out: DIZ
[1] = test system: Pseudomonas aeruginosa; experiment: Antibacterial activity against gram-negative Pseudomonas aeruginosa at 5 mg/ml after 24 hrs by well diffusion method
[2] = test system: Bacillus subtilis; experiment: Antibacterial activity against gram-positive Bacillus subtilis at 5 mg/ml after 24 hrs by well diffusion method
[3] = test system: Bacillus mycoides; experiment: Antibacterial activity against gram-positive Bacillus mycoides at 5 mg/ml after 24 hrs by well diffusion method
[4] = test system: Escherichia coli; experiment: Antibacterial activity against gram-negative Escherichia coli at 5 mg/ml after 24 hrs by well diffusion method

SMILES | zone of inhibition at 5000 µg/mL [1] [mm] | zone of inhibition at 5000 µg/mL [2] [mm] | zone of inhibition at 5000 µg/mL [3] [mm] | zone of inhibition at 5000 µg/mL [4] [mm] | diameter of the inhibition zone (DIZ) [1] | diameter of the inhibition zone (DIZ) [2] | diameter of the inhibition zone (DIZ) [3] | diameter of the inhibition zone (DIZ) [4]
Cn1c(=O)c2c(-c3cccs3)c[nH]c2n(C)c1=O | 20 | 20 | 13 | 13 |  |  |  | 
Cn1c(=O)c2c(-c3ccc(Cl)cc3)c[nH]c2n(C)c1=O |  |  |  |  | inactive | inactive | inactive | inactive
Cn1c(=O)c2c(-c3c[nH]c4ccccc34)c[nH]c2n(C)c1=O | 20 | 20 |  | 12 |  |  | inactive | 
CN(C)c1ccc(-c2c[nH]c3c2c(=O)n(C)c(=O)n3C)cc1 | 20 | 15 | 12 | 11 |  |  |  | 
Cn1c(=O)c2c(-c3ccco3)c[nH]c2n(C)c1=O | 18 | 20 |  | 12 |  |  | inactive | 
COc1ccc(-c2c[nH]c3c2c(=O)n(C)c(=O)n3C)cc1 |  |  |  |  | inactive | inactive | inactive | inactive
Cn1c(=O)c2c(-c3ccc(O)cc3)c[nH]c2n(C)c1=O |  |  |  |  | inactive | inactive | inactive | inactive
Cc1ccc(-c2c[nH]c3c2c(=O)n(C)c(=O)n3C)cc1 | 20 | 20 | 12 | 15 |  |  |  | 
Cn1c(=O)c2c(-c3ccccc3)c[nH]c2n(C)c1=O |  |  |  |  | inactive | inactive | inactive | inactive
Cn1c(=O)c2c(-c3cccc4ccccc34)c[nH]c2n(C)c1=O | 20 | 18 | 17 | 14 |  |  |  | 
